{"source": "a melting point compilation (Tetko et al.; mined from patent text by program, amines drawn as free bases though some values may be those of a salt)"}
{"units": {"melting point": "°C"}}
{"molecule": "CN1Cc2c(C#CC(C)(C)OC(=O)C(C)(C)C)ncn2-c2cccc(Cl)c2C1=O", "melting point": "132 to 133"}
{"molecule": "Cc1cc(-c2cccnc2)n2ncc(C(=O)c3ccccc3)c2n1", "melting point": "196 to 198"}
{"molecule": "Cc1c(N2C[C@@H](NC(=O)OC(C)(C)C)C3(CC3)C2)c(F)c(N)c2c(=O)c(C(=O)O)cn(C3CC3)c12", "melting point": "218 to 219"}
{"molecule": "CCCCc1nc2c(N)nc3ccccc3c2n1CCCC(C)=NOC", "melting point": "157 to 159"}
{"molecule": "CCC(C(=O)c1ccc(Cl)cc1)n1ncn(-c2ccc(N3CCN(C(=O)Cc4ccccc4)CC3)cc2)c1=O", "note": "(stereo unspecified)", "melting point": 172}
{"molecule": "Cc1cc(=O)[nH]c2cc(O)cc(O)c12", "melting point": "> 300"}
{"molecule": "O=Cc1ccc(OCCCC(=O)O)c([N+](=O)[O-])c1", "melting point": "136 to 139"}
{"molecule": "CCc1cccc2c3c([nH]c12)C(CC)(CC)OCC3", "melting point": "133 to 134"}
{"molecule": "CC(OCc1cc2nc(C(F)(F)F)ccc2n1S(=O)(=O)c1ccc2ncsc2c1)C(=O)O", "note": "(stereo unspecified)", "melting point": 124}
{"molecule": "CCCc1c(OCCCCCC(=O)NC(C)CCCc2cccnc2)ccc(C(C)=O)c1O", "note": "(stereo unspecified)", "melting point": "63 to 66"}
{"molecule": "CCOC(=O)C1=C(C)NC(=S)N(S(C)(=O)=O)C1c1cccc([N+](=O)[O-])c1", "note": "(stereo unspecified)", "melting point": "161 to 163"}
{"molecule": "CCCCCC(=O)NC[C@H](CC(C)C)NC(=O)[C@H]1O[C@@H]1C(=O)OCC", "melting point": "120 to 121"}
{"molecule": "N#Cc1ccc(C=O)c(-c2ccccc2)c1", "melting point": 75}
{"molecule": "COC(=O)CCNc1ccccc1CNC(=O)C1Cc2ccccc2N1S(=O)(=O)c1ccc(-c2ccc(F)cc2OC)cc1", "note": "(stereo unspecified)", "melting point": "78 to 80"}
{"molecule": "c1ccc(-c2nc3cc4oc(-c5ccccc5)nc4cc3o2)cc1", "melting point": "319 to 323"}
{"molecule": "O=S(=O)(Cl)c1ccc(Nc2nccc(-c3ccc(C(F)(F)F)cc3)n2)cc1", "melting point": "186 to 188"}
{"molecule": "O=C(c1ccc(-c2cccc3ccccc23)cc1)N1Cc2cccn2Cc2ccccc21", "melting point": "170 to 171"}
{"molecule": "CN1CC(CCN2CCN(c3cc(Cl)cc(Cl)c3)CC2)OC1=O", "note": "(stereo unspecified)", "melting point": "89 to 90"}
{"molecule": "CCc1sc2ncccc2c1S(=O)(=O)Nc1onc(C)c1Cl", "melting point": "152 to 154"}
{"molecule": "COc1cc2c(cc1Nc1ncc(Cl)c(N[C@H]3[C@@H](C(N)=O)[C@@H]4C=C[C@H]3C4)n1)CCN(CCS(C)(=O)=O)CC2", "melting point": "132 to 146"}
{"molecule": "CCC(=O)N1c2ccccc2NC(=O)c2cscc21", "melting point": "222 to 224"}
{"molecule": "C1=NCC2=C3C(=C1)CCCC3CCC2", "note": "(stereo unspecified)", "melting point": "207 to 209"}
{"molecule": "Cc1cc(C2(C(F)(F)F)C=NC(c3ccccc3)C2)ccc1NC(=O)c1cccc(I)c1C(=O)NC(C)C", "note": "(stereo unspecified)", "melting point": "118 to 120"}
{"molecule": "Nc1ccccc1Oc1ccccc1Cl", "melting point": "44 to 45"}
{"molecule": "CC(CCCCO)Oc1c(I)cc(I)cc1I", "note": "(stereo unspecified)", "melting point": "79 to 80"}
{"molecule": "O=C(Nc1nccc2ccc(CO)cc12)c1ccccc1", "melting point": "190 to 193"}
{"molecule": "CC(C)(C)OC(=O)N1CCCC[C@H]1C(OC(=O)Nc1ccc2[nH]ncc2c1)c1cccc(C(=O)O)c1", "note": "(stereo partly specified)", "melting point": 178}
{"molecule": "O=C(O)c1cn(Cc2nccs2)c2cc(N3CCN(c4ccncc4)CC3)ccc2c1=O", "melting point": "273 to 276"}
{"molecule": "COc1ccc2c(c1)C(=O)C(Cc1ccccc1)CS2", "note": "(stereo unspecified)", "melting point": "66 to 68"}
{"molecule": "CC(C)c1nc(CC#N)n(C)c1Sc1cc(Cl)cc(Cl)c1", "melting point": "103 to 105"}
{"molecule": "N#CCc1ccc(-n2cc(Cl)cn2)cc1Cl", "melting point": 140}
{"molecule": "Nc1cc(=O)nc(Nc2ccccc2)n1-c1ccc(Br)cc1", "melting point": "211 to 213"}
{"molecule": "N#CC(=C(O)c1ccncc1)c1ccc(F)cc1", "melting point": 225}
{"molecule": "COC(=O)CSc1nc(Sc2ccc(Cl)cc2)ncc1[N+](=O)[O-]", "melting point": "157 to 159"}
{"molecule": "CC1=C(C)c2cc(Br)ccc2Sc2ccccc21", "melting point": "108 to 111"}
{"molecule": "COC(=O)c1cccc(-c2nnc(-c3ccc(N4CCOCC4)cc3)o2)c1", "melting point": "150 to 151"}
{"molecule": "CC(C)(CCn1cnnc1)NCC(O)c1ccc(O)c(CO)c1", "note": "(stereo unspecified)", "melting point": "125 to 127"}
{"molecule": "CCC1c2cccn2-c2ccccc2N1S(=O)(=O)c1ccc(O)c(C)c1", "note": "(stereo unspecified)", "melting point": "171 to 173"}
{"molecule": "COc1ccc2oc3cccc(NCCN4CCCC4)c3c(=O)c2c1", "melting point": "92 to 93"}
{"molecule": "CC1(C)CCC(C)(C)c2cc(C(=O)c3ccccc3C(=O)N(CCO)CCO)ccc21", "melting point": 116}
{"molecule": "CN1C(=O)C2(COc3cc4c(cc32)OCCO4)c2c(OCc3ccccc3)cccc21", "note": "(stereo unspecified)", "melting point": "198 to 200"}
{"molecule": "COC(C)(CC(=O)Nc1ccccc1)OC", "melting point": 80}
{"molecule": "O=c1oc2cccnc2n1CN1CCN(c2cccc(C(F)(F)F)c2)CC1", "melting point": "112 to 118"}
{"molecule": "CC(C)C(=O)O[C@H]1[C@H](C)OC(=O)[C@@H](NC(=O)OC(C)(C)C)COC(=O)[C@@H]1CC(=O)OC(C)(C)C", "melting point": "170 to 172"}
{"molecule": "CCCC(C)(Oc1ccc(CC(=O)Nc2cc(C)cc(C)c2)cc1)C(=O)O", "note": "(stereo unspecified)", "melting point": "145 to 147"}
{"molecule": "COC(=O)c1c(-c2ccc(Cl)cc2)c2cc(OCc3ccccc3)ccc2c(=O)n1CC(C)C", "melting point": 166}
{"molecule": "CC(C)(C)OC(=O)NCCc1cccc(OCCC2Oc3ccccc3N(Cc3cccc(Cl)c3)C2=O)c1", "note": "(stereo unspecified)", "melting point": "107 to 108"}
{"molecule": "CC1CCN(c2ccnc(NC(=O)NCc3ccccn3)c2)C1=O", "note": "(stereo unspecified)", "melting point": "190 to 191"}
{"molecule": "O=C1C(Cc2ccccc2)NC(=S)N1c1ccccc1", "note": "(stereo unspecified)", "melting point": "187 to 189"}
{"molecule": "CCCCS(=O)(=O)c1ccc(NN)cc1", "melting point": 138}
{"molecule": "CCCCCC(C)C(C)c1cc(O)c2c(c1)OC(C)(C)C1=C2CCC1", "note": "(stereo unspecified)", "melting point": "154 to 156"}
{"molecule": "Cc1noc(NS(=O)(=O)c2ccc([N+](=O)[O-])cc2)c1Br", "melting point": "146 to 149"}
{"molecule": "CCCc1c(C(=O)NCc2ccc3cc(OCC(=O)O)ccc3c2)cnn1-c1ccc(Cl)cc1", "melting point": "203 to 204"}
{"molecule": "CCC(=O)NCC[C@@H]1CCc2cc(O)c3c(c21)CCO3", "melting point": "149 to 152"}
{"molecule": "COc1cc(C2OCCO2)cc(C#N)c1OC", "melting point": "76.5 to 77.5"}
{"molecule": "O=C(O)CCCc1cc2cc(Cl)ccc2n1S(=O)(=O)c1ccc(N2CCOCC2)nc1", "melting point": "78 to 82"}
{"molecule": "CCOC(=O)c1cn(C2CC2)c2nc(N3C[C@@H](CN(C)C(=O)C(F)(F)F)[C@@H](F)C3)c(F)cc2c1=O", "note": "(relative stereo)", "melting point": "177 to 179"}
{"molecule": "CCOC(=O)C(C(=O)OCC)C(N)c1ccc([N+](=O)[O-])cc1C(N)C(C(=O)OCC)C(=O)OCC", "note": "(stereo unspecified)", "melting point": "148 to 151"}
{"molecule": "CC12CCC(O)CC1CCC1C2CCC2(C)C1CCC2(SCc1ccccc1)SCc1ccccc1", "note": "(stereo unspecified)", "melting point": "184 to 185"}
{"molecule": "O=C(O)CC1CN(Cc2ccc(Cl)c(Cc3ccccc3)c2Cl)C(=O)N(c2ccc(Br)cc2)C1", "note": "(stereo unspecified)", "melting point": "174 to 176"}
{"molecule": "COc1ccc(C(=O)C2C(Cl)=CC=CC2(C)Cl)c(OC(=O)Cc2ccccc2)c1OC", "note": "(stereo unspecified)", "melting point": 106}
{"molecule": "CCOC(=O)Cc1nc(-c2ccc(Cl)cc2)sc1Sc1ccccc1", "melting point": "71 to 73"}
{"molecule": "COc1ccc(-c2ccc3cnc(Nc4ccc5c(c4)N(S(C)(=O)=O)CCC5)nn23)cn1", "melting point": "202 to 203"}
{"molecule": "Cc1ccc(C(=O)NCCN(C)C)cc1-n1c(C)cc(OCc2ccccc2CNC(=O)Nc2cc(C(C)(C)C)nn2-c2ccc(O)c(Cl)c2)c(Cl)c1=O", "melting point": "181 to 182"}
{"molecule": "COc1ccc(-c2nc3cc(F)ccc3s2)cc1OC(=O)c1ccccc1Cl", "melting point": 190}
{"molecule": "c1ccc(-c2[nH]c3ccccc3c2CCC2CCNCC2)cc1", "melting point": 183}
{"molecule": "Cc1cn(C(C)C(=O)N(C)C)nc1-c1ccccc1", "note": "(stereo unspecified)", "melting point": "87 to 89"}
{"molecule": "COC(=O)C(=Cc1cc(OC)cc(OC)c1)c1ccc(Oc2ccc(CC3SC(=O)NC3=O)cc2)cc1", "note": "(stereo unspecified)", "melting point": "65 to 66"}
{"molecule": "O=c1ccn(-c2ccc([N+](=O)[O-])cc2)c(=O)[nH]1", "melting point": "> 300"}
{"molecule": "O=C1CCC(c2cccc(F)c2)(c2cccc(F)c2)[C@@H]2CN(C(=O)Cc3ccccc3)C[C@H]12", "note": "(racemic)", "melting point": 108}
{"molecule": "CN1C(=O)CCc2cc(S(=O)(=O)Cl)ccc21", "melting point": 130}
{"molecule": "CCOC(=O)c1oc2cc(SC(=O)N(C)C)ccc2c1C", "melting point": "112 to 114"}
{"molecule": "Cc1cc(O)cc(-c2nn(CC#N)cc2-c2cc(NC[C@H](C)O)nc(-c3cccnc3)n2)c1", "melting point": 236}
{"molecule": "CC1OC(OC2C=C(Br)C(=O)C(C)O2)C=C(Br)C1=O", "note": "(stereo unspecified)", "melting point": 125}
{"molecule": "Cc1cc(Br)ccc1C(=O)NCc1ccccn1", "melting point": "86 to 87.5"}
{"molecule": "Nc1cnc(-c2cc(Cl)cc(Cl)c2Cl)c(NC(=O)C2CC2)n1", "melting point": "188 to 190"}
{"molecule": "O=C(O)C1=Cc2cc(C(O)C(F)(F)F)ccc2OC1C(F)(F)F", "note": "(stereo unspecified)", "melting point": "114 to 120"}
{"molecule": "Cc1ccc(S(=O)(=O)N(C)c2ccc(Cl)cc2Cl)cc1", "melting point": "86 to 87"}
{"molecule": "COc1ccccc1N1CCN(CCCNC(=O)c2cccc3c(=O)c(C)c(C4(C)CCCCC4)oc23)CC1", "melting point": "120 to 124"}
{"molecule": "O=c1c2ccccc2ccc2cc(Cl)ccc12", "melting point": "160 to 161"}
{"molecule": "CC(=O)N1Cc2cccc3c2c(cn3C)C1", "melting point": "125 to 126"}
{"molecule": "O=C(O)C1=Cc2cc(Cl)cc(-c3nc4ccccc4[nH]3)c2OC1C(F)(F)F", "note": "(stereo unspecified)", "melting point": "> 300"}
{"molecule": "CC(C)(C)C(=O)Nc1ccc(SSc2ccc(NC(=O)C(C)(C)C)cc2C(N)=O)c(C(N)=O)c1", "melting point": "288 to 289"}
{"molecule": "Cc1oc2nc3c(c(NC(=O)C(C)C)c2c1C)CCCC3", "melting point": "245 to 246"}
{"molecule": "CCOC(=O)c1cnc2cc(OC)c(OC)cc2c1", "melting point": "> 300"}
{"molecule": "CC(C)(C)C(=O)C(C#N)C(=O)c1ccc(S(C)(=O)=O)cc1Cl", "note": "(stereo unspecified)", "melting point": 144}
{"molecule": "COc1ccc(CCCN2C=CC=C3C2=Nc2cc(C)ccc2S(=O)(=O)N3C)cc1", "melting point": "130 to 131"}
{"molecule": "CC(=O)NC[C@H]1CN(c2ccc(N3CCC4(CC3)OCCS4)c(F)c2)C(=O)O1", "melting point": "160 to 164"}
{"molecule": "O=C(O)c1nc2n(c(=O)c1OCc1ccccc1)CCOC2", "melting point": 171}
{"molecule": "c1cnc2ccc(Cn3nnc4ccc(-c5ccc(N6CCCCC6)nc5)nc43)cc2c1", "melting point": "133 to 135"}
{"molecule": "CCn1cnc(S(=O)(=O)O)c1", "melting point": 278}
{"molecule": "CCN1c2ncc(CCc3ccnc(C)c3)cc2C(=O)N(C)c2ccc(Cl)nc21", "melting point": "94 to 96"}
{"molecule": "NS(=O)(=O)c1ccc(NC(=O)Nc2c(F)c(F)c(F)c(F)c2F)cc1", "melting point": "251 to 253"}
{"molecule": "O=C(c1ccc(Cl)cc1)c1cccc(Cl)c1[N+](=O)[O-]", "melting point": "147 to 148"}
{"molecule": "CN(C)C(=S)Sc1sn(CCc2ccccc2)c(=O)c1Cl", "melting point": "125 to 127"}
{"molecule": "CCOC(=O)C(=O)Nc1ccc(C=Cc2ccc3ccccc3n2)cc1", "melting point": "160 to 162"}
